Test results reported in patent US20240358679A1, “PHARMACEUTICAL AND FOOD COMPOSITIONS FOR THE PREVENTION, ALLEVIATION, OR TREATMENT OF INFLAMMATORY DISEASES COMPRISING 1-ALKYL-5-ARYLIDENE-2-SELENOXOIMIDAZOLIDIN-4-ONE AND ITS DERIVATIVES” (priority 2022, published 2024).

Tests used:
Assay type in all cases: cell-based
SH-SY5Y cell line [1] = experiment: Cell viability (MTT assay); settings: compound 0.5 μM; for cell viability after MPP+: MPP+ (2 mM) 24 hours; for cell viability after rotenone: rotenone (2 μM) 24 hours
Description: The treatment of cell lines with the toxic substances MPP+ or rotenone induces cytotoxicity due to various inflammatory and immune response abnormalities. The viability of the cells under these conditions can be measured using the MTT assay.
Specifically, the SH-SY5Y cell line was treated with 0.5 μM of Compound 1aaa (Compound 1), 1aca (Compound 24), 1ace (Compound 27), 1ahe (Compound 44) or 1aje (Compound 62) and then with MPP+ (2 mM) or rotenone (2 μM) for 24 hours. Cell viability in the case of being treated with each compound is illustrated in FIGS. 4 and 5.

SH-SY5Y cell line [2] = experiment: Inhibition of reactive oxygen species generation (CM-H2DCFDA fluorescence); settings: compound 10 μM
Description: It is known that the administration of MPP+ or rotenone to cell lines results in the generation of reactive oxygen species (ROS) due to mitochondrial inhibition, the activation of NOX enzymes and the like. The excessively generated ROS can induce various inflammatory responses through multiple pathways. The ROS generated in this process react with the CM-H2DCFDA reagent to produce fluorescence, thereby allowing the indirect quantification of ROS.
Specifically, the SH-SY5Y cell line was treated with Compound 1aaa (Compound 1, 10 μM), apocynin (5 μM), or allopurinol (50 μM), and then with MPP+ (2 mM) or rotenone (2 μM) for 24 hours. The effect of each compound to inhibit the generation of reactive oxygen species is illustrated in FIGS. 2 and 3 as a relative percentage to that of the control group.

Nrf-2 = Nrf-2 induction, Western blot of nuclear fraction; settings: SH-SY5Y, compound 10 μM, 24 hours, increase
Description: When oxidative stress caused by reactive oxygen species increases in cells, the synthesis of antioxidants increases in response to this. One of the transcription factors mediating this antioxidant response is Nrf-2. As the transcription factor Nrf-2 enters the nucleus and the expression of genes related to antioxidation increases, the antioxidant capacity of cells increases,
Specifically, the SH-SY5Y cell line was exposed to Compound 1aaa (Compound 1, 10 μM) for 24 hours and then the cells were taken. Thereafter, the nuclear fraction was extracted, then Western blotting was performed to analyze the amount of Nrf-2 in the nucleus, and the results are illustrated in FIG. 6.

BV2 cell lines = experiment: Anti-inflammatory activity: morphological changes of LPS-treated BV2 cells; settings: compound 0.1, 1, 10 μg/ml for 2 hours, then LPS (10 μg/ml), 24 hours
Description: (§1) To evaluate the anti-inflammatory activity of the compounds of the present invention, the morphological changes related to inflammation in cells and the suppression of the expression of inflammatory proteins (IL-1R and COX2) were assessed.
(§2) Specifically, BV2 cell lines were treated with compound 1aaa (0.1, 1, 10 μg/ml) for 2 hours, followed by treatment with LPS (10 μg/ml), and then cultured for 24 hours. Additionally, Western blot analysis was performed to analyze the expression of inflammatory proteins, and the results are shown in FIGS. 8 and 9.

IL-1β = experiment: Anti-inflammatory activity: Western blot of IL-1β expression in LPS-treated BV2 cells; settings: BV2, compound 0.1, 1, 10 μg/ml, LPS (10 μg/ml), 24 hours
Description: as §1, §2

COX2 = experiment: Anti-inflammatory activity: Western blot of COX2 expression in LPS-treated BV2 cells; settings: BV2, compound 0.1, 1, 10 μg/ml, LPS (10 μg/ml), 24 hours
Description: as §1, §2

SMILES	cell viability after MPP+ (SH-SY5Y cell line [1])	cell viability after rotenone (SH-SY5Y cell line [1])	generation of reactive oxygen species after MPP+ (SH-SY5Y cell line [2]; MPP+ (2 mM) 24 hours)	generation of reactive oxygen species after rotenone (SH-SY5Y cell line [2]; rotenone (2 μM) 24 hours)	amount of Nrf-2 in the nucleus (Nrf-2)	activation of BV2 macrophages (morphology) (BV2 cell lines)	expression of IL-1β (IL-1β)	expression of COX2 (COX2)
CCCCCCN1C(=O)/C(=C\c2cc(O)cc(O)c2)N(C)C1=[Se] [Compound 62, 5-(3,5-dihydroxybenzylidene)-3-hexyl-1-methyl-2-selenoxoimidazolidin-4-one]	improve cell viability	improve cell viability						
CCc1ccc(N2C(=O)/C(=C\c3ccc(O)cc3O)N(C)C2=[Se])cc1 [Compound 24, 5-(2,4-dihydroxybenzylidene)-3-(4-ethylphenyl)-1-methyl-2-selenoxoimidazolidin-4-one]	improve cell viability	improve cell viability						
CCc1ccc(N2C(=O)/C(=C\c3cc(O)cc(O)c3)N(C)C2=[Se])cc1 [Compound 27, 5-(3,5-dihydroxybenzylidene)-3-(4-ethylphenyl)-1-methyl-2-selenoxoimidazolidin-4-one]	improve cell viability	improve cell viability						
CN1C(=[Se])N(CCc2ccccc2)C(=O)/C1=C\c1cc(O)cc(O)c1 [Compound 44, 5-(3,5-dihydroxybenzylidene)-1-methyl-3-phenethyl-2-selenoxoimidazolidin-4-one]	improve cell viability	improve cell viability						
CN1C(=[Se])N(c2ccccc2)C(=O)/C1=C\c1ccc(O)cc1O [Compound 1, 5-(2,4-dihydroxybenzylidene)-1-methyl-3-phenyl-2-selenoxoimidazolidin-4-one]	improve cell viability	improve cell viability	effectively inhibits	effectively inhibits	about 1.5 times	inhibited the activation of BV2 macrophages in a dose-dependent manner	significantly suppressed	significantly suppressed
